Data from patent US20240182481A1 (Tango Therapeutics, Inc., priority 2021, published 2024).

Tests used:
[1] = tested on: MDA-MB-436 (BRCA1 mutant) cell line; experiment: Viability assay in BRCA1 mutant cell line MDA-MB-436; assay type: cell-based; details: Homo sapiens, MDA-MB-436, viability, BRCA1 mutant MDA-MB-436; read-out: MDA-MB-436 rel IC50
Description: (§1) Table 1 also indicates IC50 values in a viability assay for a non-isogenic pair of BRCA1 mutant (column 5—MDA-MB-436) and BRCA1 WT (column 6—HCC1954) cell lines. These values indicate the effect of treatment with compound on cell survival.

[2] = molecular target: USP1-UAF1 (Homo sapiens, UniProt O94782); experiment: Ubiquitin Rhodamine assay for USP1-UAF1 activity; assay type: biochemical
USP1-UAF1, sequence (O94782 whole entry): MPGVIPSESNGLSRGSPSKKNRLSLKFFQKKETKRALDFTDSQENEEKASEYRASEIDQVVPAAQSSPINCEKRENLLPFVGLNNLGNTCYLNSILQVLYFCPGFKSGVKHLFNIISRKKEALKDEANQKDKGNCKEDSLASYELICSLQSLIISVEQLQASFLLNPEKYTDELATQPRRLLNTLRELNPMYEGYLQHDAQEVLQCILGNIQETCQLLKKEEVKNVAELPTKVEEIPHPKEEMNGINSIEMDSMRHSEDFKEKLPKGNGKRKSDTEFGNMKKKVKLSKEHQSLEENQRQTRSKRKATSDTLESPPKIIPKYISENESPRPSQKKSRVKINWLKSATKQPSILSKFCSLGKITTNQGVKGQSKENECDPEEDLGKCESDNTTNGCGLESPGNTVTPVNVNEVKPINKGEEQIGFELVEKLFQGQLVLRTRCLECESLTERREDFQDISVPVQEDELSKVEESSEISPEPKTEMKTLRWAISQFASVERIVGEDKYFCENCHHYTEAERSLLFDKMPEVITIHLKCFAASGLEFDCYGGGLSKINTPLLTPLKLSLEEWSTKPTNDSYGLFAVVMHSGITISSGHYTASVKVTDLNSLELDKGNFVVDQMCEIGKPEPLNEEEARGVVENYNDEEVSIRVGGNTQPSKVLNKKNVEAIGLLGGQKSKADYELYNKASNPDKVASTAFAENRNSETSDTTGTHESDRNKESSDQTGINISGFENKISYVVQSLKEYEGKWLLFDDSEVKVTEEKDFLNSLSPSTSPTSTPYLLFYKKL
USP1-UAF1, sequence (Q8TAF3 whole entry partner): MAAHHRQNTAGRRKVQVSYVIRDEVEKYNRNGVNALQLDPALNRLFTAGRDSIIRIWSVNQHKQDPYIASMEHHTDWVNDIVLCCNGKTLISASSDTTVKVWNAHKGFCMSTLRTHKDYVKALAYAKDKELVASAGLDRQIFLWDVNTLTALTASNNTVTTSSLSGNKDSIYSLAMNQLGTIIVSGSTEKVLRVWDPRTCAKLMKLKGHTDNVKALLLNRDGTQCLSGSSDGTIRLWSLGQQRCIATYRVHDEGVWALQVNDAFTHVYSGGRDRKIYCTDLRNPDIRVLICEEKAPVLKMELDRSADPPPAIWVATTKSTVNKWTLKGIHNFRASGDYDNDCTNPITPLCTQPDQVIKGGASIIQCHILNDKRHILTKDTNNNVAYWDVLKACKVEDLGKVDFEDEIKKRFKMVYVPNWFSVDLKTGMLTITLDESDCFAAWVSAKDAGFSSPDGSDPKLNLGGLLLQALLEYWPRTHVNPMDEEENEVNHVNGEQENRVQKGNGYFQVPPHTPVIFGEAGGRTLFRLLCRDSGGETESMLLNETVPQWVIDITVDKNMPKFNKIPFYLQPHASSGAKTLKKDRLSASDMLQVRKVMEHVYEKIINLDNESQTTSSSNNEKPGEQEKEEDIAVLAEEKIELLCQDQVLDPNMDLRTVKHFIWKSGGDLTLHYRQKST
Experimental: Certain compounds of the disclosure were assessed for USP1-UAF1 activity in a Ubiquitin Rhodamine assay as described in Example 135.

[3] = tested on: monoubiquitinated PCNA; experiment: AlphaLISA assay measuring monoubiquitinated PCNA in MDA-MB-436; assay type: cell-based; details: Homo sapiens, read-out: Alpha LISA IC50
Description: Table 1 also indicates IC50 values for exemplary compounds in an AlphaLISA assay measuring monoubiquitinated PCNA in a BRCA1 mutant cell line (MDA-MB-436; column 7).

[4] = tested on: HCC1954 (BRCA1 WT) cell line; experiment: Viability assay in BRCA1 WT cell line HCC1954; assay type: cell-based; details: Homo sapiens, read-out: HCC 1954 IC50 rel IC50
Description: as §1

| Structure (SMILES) | IC50 [1] [nM] | IC50 [2] [nM] | IC50 [3] [nM] | IC50 [4] [nM] |
| --- | --- | --- | --- | --- |
| COc1ncnc(C2CC2)c1-c1ncc2c(n1)c(Cc1ccc(-c3nc(C(F)(F)F)cn3C)cc1)nn2CC(F)(F)F [Compound 190, 5-(4-cyclopropyl-6-methoxy-pyrimidin-5-yl)-3-[[4-[1-methyl-4-(trifluoromethyl)imidazol-2-yl]phenyl]methyl]-1-(2,2,2-trifluoroethyl)pyrazolo[4,3-d]pyrimidine] | < 100 | 30 to 100 | < 100 | ≥ 10000 |
| COc1nccc(C)c1-c1ncc2[nH]nc(Cc3ccc(-c4nc(C(F)(F)F)cn4C)cc3)c2n1 [Compound 191] | 100 to 250 | 100 to 10000 | 250 to 10000 | ≥ 10000 |
| Cn1cc(C(F)(F)F)nc1-c1ccc(Cc2c[nH]c3cnc(-c4c(C5CC5)ncnc4C4CC4)nc23)cc1 [Compound 193, 2-(4,6-dicyclopropylpyrimidin-5-yl)-7-[[4-[1-methyl-4-(trifluoromethyl)imidazol-2-yl]phenyl]methyl]-5H-pyrrolo[3,2-d]pyrimidine] | < 100 | < 30 | < 100 | ≥ 10000 |
| COc1cccc(OC)c1-c1ncc2[nH]cc(Cc3ccc(-c4nc(C(F)(F)F)cn4C)cc3)c2n1 [Compound 194] | 100 to 250 | 30 to 100 | 250 to 10000 | ≥ 10000 |
| COc1ncnc(C2CC2)c1-c1ncc2[nH]cc(C(O)(c3ccc(-c4nc(C(F)(F)F)cn4C)cc3)C(C)C)c2n1 (stereo not shown) [Compound 199] | 100 to 250 | 100 to 10000 | 100 to 250 | 250 to 10000 |
| COCCn1cc(Cc2ccc(-c3nc(C(F)(F)F)cn3C)cc2)c2nc(-c3c(OC)ncnc3C3CC3)ncc21 [Compound 200, 2-(4-cyclopropyl-6-methoxy-pyrimidin-5-yl)-5-(2-methoxyethyl)-7-[[4-[1-methyl-4-(trifluoromethyl)imidazol-2-yl]phenyl]methyl]pyrrolo[3,2-d]pyrimidine] | < 100 | 30 to 100 | < 100 | ≥ 10000 |
| COc1ncnc(C2(F)CC2)c1-c1ncc2[nH]nc(Cc3ccc(-c4nc(C(F)(F)F)cn4C)cc3)c2n1 [Compound 202, 5-[4-(1-fluorocyclopropyl)-6-methoxy-pyrimidin-5-yl]-3-[[4-[1-methyl-4-(trifluoromethyl)imidazol-2-yl]phenyl]methyl]-1H-pyrazolo[4,3-d]pyrimidine] | < 100 | < 30 | < 100 | ≥ 10000 |
| [2H]C([2H])([2H])Oc1ncnc(C2CC2)c1-c1ncc2[nH]cc(Cc3ccc(-c4nc(C(F)(F)F)cn4C)cc3)c2n1 [Compound 204, 2-[4-cyclopropyl-6-(trideuteriomethoxy)pyrimidin-5-yl]-7-[[4-[1-methyl-4-(trifluoromethyl)imidazol-2-yl]phenyl]methyl]-5H-pyrrolo[3,2-d]pyrimidine] | < 100 | < 30 | < 100 | ≥ 10000 |
| COc1nccc(C2CC2)c1-c1ncc2[nH]nc(Cc3ccc(-c4nc(C(F)(F)F)cn4C)cc3)c2n1 [Compound 205, 5-(4-cyclopropyl-2-methoxy-3-pyridyl)-3-[[4-[1-methyl-4-(trifluoromethyl)imidazol-2-yl]phenyl]methyl]-1H-pyrazolo[4,3-d]pyrimidine] | < 100 | < 30 | < 100 | ≥ 10000 |
| COc1ncnc(C2CC2)c1-c1ncc2[nH]nc(Cc3ccc(-c4nc(C(F)(F)F)cn4C4CC4)cc3)c2n1 [Compound 206] | < 100 | < 30 | < 100 | 250 to 10000 |
| COc1ncnc(C2CC2)c1-c1ncc2[nH]c(C)c(C(O)c3ccc(-c4nc(C(F)(F)F)cn4C)cc3)c2n1 (stereo not shown) [Compound 207, [2-(4-cyclopropyl-6-methoxy-pyrimidin-5-yl)-6-methyl-5H-pyrrolo[3,2-d]pyrimidin-7-yl]-[4-[1-methyl-4-(trifluoromethyl)imidazol-2-yl]phenyl]methanol] | 250 to 10000 | 100 to 10000 | 250 to 10000 | ≥ 10000 |

Now from value to compound:

| IC50 [1] [nM] | IC50 [2] [nM] | IC50 [3] [nM] | IC50 [4] [nM] | Structure (SMILES) |
| --- | --- | --- | --- | --- |
| < 100 | < 30 | < 100 | ≥ 10000 | COc1ncnc(C2CC2)c1-c1ncc2[nH]c(C)c(Cc3ccc(-c4nc(C(F)(F)F)cn4C)cc3)c2n1 [Compound 188] |
| < 100 | 30 to 100 | < 100 | ≥ 10000 | COc1ncnc(C2CC2)c1-c1ncc2[nH]nc(Cc3ccc(-c4nc(C(F)(F)F)cn4C)cc3F)c2n1 [Compound 189, 5-(4-cyclopropyl-6-methoxy-pyrimidin-5-yl)-3-[[2-fluoro-4-[1-methyl-4-(trifluoromethyl)imidazol-2-yl]phenyl]methyl]-1H-pyrazolo[4,3-d]pyrimidine] |
| < 100 | < 30 | < 100 | ≥ 10000 | COCCc1[nH]c2cnc(-c3c(OC)ncnc3C3CC3)nc2c1Cc1ccc(-c2nc(C(F)(F)F)cn2C)cc1 [Compound 195, 2-(4-cyclopropyl-6-methoxy-pyrimidin-5-yl)-6-(2-methoxyethyl)-7-[[4-[-methyl-4-(trifluoromethyl)imidazol-2-yl]phenyl]methyl]-5H-pyrrolo[3,2-d]pyrimidine] |
| < 100 | < 30 | < 100 | ≥ 10000 | COc1ncnc(C2CC2)c1-c1ncc2[nH]nc(Cc3ccc(-c4nc(C(F)(F)F)cn4C)cc3C)c2n1 [Compound 196] |
| < 100 | < 30 | < 100 | ≥ 10000 | COc1ncnc(C2CC2)c1-c1ncc2[nH]cc(Cc3ccc(-c4nc(C(F)(F)F)cn4C)cc3C)c2n1 [Compound 203, 2-(4-cyclopropyl-6-methoxy-pyrimidin-5-yl)-7-[[2-methyl-4-[1-methyl-4-(trifluoromethyl)imidazol-2-yl]phenyl]methyl]-5H-pyrrolo[3,2-d]pyrimidine] |
